Reference: patent EP1004309A1, “ISRAPAFANT-CONTAINING WATER-BASE PREPARATIONS” (Senju Pharmaceutical Co., Ltd., priority 1997, dated 1998)
Converted amounts (≈) assume the structure as drawn. “Also recorded” adds a separate entry of the source. One block for each compound: values may come before it.

Legend:
[1] = Dissolution test: solubility of israpafant in buffers, by HPLC; format: physicochemical; settings: 0.1% acetate, phosphate and borate buffers, 25 °C, aqueous buffer, thermodynamic from solid; each buffer (pH 4, 5, 6, 7, 8 and 9); below detection limit by HPLC
Method: Israpafant (manufactured by Yoshitomi Pharmaceutical Industries, Ltd.) was suspended in 0.1% acetate buffer (pH 4, 5, 6), phosphate buffer (pH 6, 7, 8) and borate buffer (pH 8, 9) in a concentration of 0.1% (w/v%, hereinafter the same). Each suspension was filled in a glass ampoule by 5 ml and shaken at 25°C overnight (ca. 15 hours). After passing through a 0.45 µm membrane filter, the solubility of israpafant was measured by HPLC.
(§1) • column: YMC AM-302 (4.6×150 mm) • mobile phase: acetonitrile:0.1M ammonium acetate-87:13 • detection: UV 244 nm • column temperature:35°C • flow rate: 0.7 ml/min • internal standard:1,3,5-triphenylbenzene

[2] = Dissolution test: solubility of israpafant in aqueous solutions containing additives, by HPLC; format: physicochemical; settings: for solubility: 0.1% phosphate buffer with dissolved additive, 25 °C, pH 7, aqueous with cosolvent or surfactant or cyclodextrin, thermodynamic from solid
Method: In 0.1% phosphate buffer (pH 7) were dissolved the additives shown in Table 2 in a proportion of 0.5% (0.5% and 4% in the sole case of polysorbate). In the same manner as above, israpafant was suspended and dissolved, after which the solubility of israpafant was measured by HPLC.
as §1

Solubility in water = format: physicochemical; settings: water at 25°C
[3] = tested on: guinea pig active sensitization allergic conjunctivitis; test: Suppressive effect against promotion of conjunctival vascular permeability (early phase reaction), dye-leakage; format: in vivo; settings: 30 minutes after second challenge
Method: (§2) Male Hartley guinea pigs weighing about 300 g purchased from Japan SLC. Ltd. were used. These animals had free access to a solid feed (γ ray irradiated feed LRC4, ORIENTAL YEAST CO., LTD.) and tap water, and were bred in a breeding chamber set to a temperature 23 ±2°C and humidity 55±15%.
(§3) Israpafant (manufactured by Yoshitomi Pharmaceutical Industries, Ltd.) was suspended in a vehicle (pH 5) shown below at a concentration of 1% to give an eye drop suspension. In addition, a suspension of israpafant in 0.5% CMC at 10 mg/ml was prepared for oral administration. As a control, physiological saline was used.
Guinea pigs were sensitized with a dispersion of 10 µg ovalbumin (OA) and 30 mg aluminum hydroxide gel by peritoneal administration. At 14 days after the sensitization, a 2.5% OA antigen solution was instilled into the both eyes by 10 µl to induce allergic conjunctivitis (first challenge). At 20 minutes after the last challenge, conjunctivitis signs were observed and the animals were grouped in such a manner that the severity of the condition was equalized from the degrees of chemosis, conjunctival injection and tearing.
The evaluation of a drug included the following steps. At 24 hours from the first challenge, 10 mg/kg Evans' blue was intravenously administered, and a 2.5% OA antigen solution was instilled into the both eyes by 10 µl to again induce conjunctivitis (the second challenge). Thirty minutes later, conjunctival dye-leakage part was excised, the parts of the both eyes were combined and the amount of the leaked dye was measured. The drug was instilled into the both eyes by 10 µl at 3, 2, 1 hour before the second challenge in the case of administration by instillation. In the case of an oral administration, 10 mg/kg was administered once at 1 hour before the second challenge. For suppression of histamine reaction, 1 mg/kg of mepyramine was intravenously administered one minute before.
(§4) • physiological saline (control group) • 1.0% israpafant (instillation group) • 10 mg/kg israpafant p.o. (oral group) • 1 mg/kg mepyramine i.v. (intravenous injection group) • 1.0% israpafant + 1 mg/kg mepyramine i.v. (concurrent instillation group) • 10 mg/kg israpafant p.o.+1 mg/kg mepyramine i.v. (concurrent instillation group)

[4] = tested on: guinea pig active sensitization allergic conjunctivitis; test: Suppressive effect against immediate allergic conjunctivitis signs (early phase reaction), total score; format: in vivo; settings: 1% israpafant instillation 10 µl one eye at 2, 4, 8 hours after first challenge and 3, 2, 1 hour before second challenge; 20 minutes after second challenge; versus physiological saline control
Method: as §2, §3
In the same manner as in 1), sensitization and induction by the first challenge and the second challenge were performed. […]

[5] = tested on: guinea pig active sensitization allergic conjunctivitis; test: Suppressive effect against eosinophil infiltration into conjunctiva (late phase reaction); format: in vivo
Method: as §2, §3
In the same manner as in 1), sensitization and induction by first challenge and second challenge were performed.
The drug was evaluated by removing the eye ball at 6 hours after the second challenge, preparing an optical microscopic specimen according to a conventional method, staining eosinophils by Luna staining, and counting and averaging the number of eosinophils infiltrated into conjunctiva with regard to each of 6 visible areas (one visible area being 0.04 mm^2) of the vicinity of conjunctival lymphoid tissue. The drug was administered in the same manner as in 1).
as §4

rat PAF conjunctivitis = test: Rat PAF conjunctivitis, conjunctival dye-leakage after eye drop; format: in vivo; settings: for inhibition: dye leakage; for amount of dye leakage: instillation 5 µl at 1, 2 hours before PAF, mean±standard error
Method: Male Wistar rats weighing about 130 g purchased from Clea Japan, Inc. were used. They were bred at temperature 23±2°C and humidity 55±15%.
Israpafant was suspended at 0.03, 0.1, 0.3 and 1.0%. Physiological saline was used for the control group.
The formulation of the vehicle for an israpafant eye drop was as shown below, wherein the pH of the eye drop at each concentration was 7.0.
PAF diluted to 4 µg/ml was administered to the upper subconjunctiva of the rat by 25 µl and at the same time, 0.5% Evans' blue (0.5 ml) was intravenously administered. Thirty minutes later, the dye-leakage part of the conjunctiva was excised and the dye was extracted with formamide, after which absorbance (625 nm) was measured. The test drug was administered by instillation (5 µl) to the eye at 1, 2 hours before subconjunctival induction of PAF.

solubility [1]: < 0.05 µg/mL | solubility ([2]; 0.5% BAK in 0.1% phosphate buffer (pH 7)): 99 µg/mL (≈ 202 µM) | solubility ([2]; 0.5% HCO60 in 0.1% phosphate buffer (pH 7)): 47.3 µg/mL (≈ 96.7 µM) | solubility ([2]; 0.5% HPMC in 0.1% phosphate buffer (pH 7)): 0.6 µg/mL (≈ 1.23 µM) | solubility ([2]; 0.5% PVA(EG40) in 0.1% phosphate buffer (pH 7)): 0.4 µg/mL (≈ 0.818 µM) | solubility ([2]; 0.5% SDS in 0.1% phosphate buffer (pH 7)): 1060 µg/mL (≈ 2160 µM) | solubility ([2]; 0.5% Tyloxapol in 0.1% phosphate buffer (pH 7)): 29.5 µg/mL (≈ 60.3 µM) | solubility ([2]; 0.5% polysorbate 80 in 0.1% phosphate buffer (pH 7)): 66.9 µg/mL (≈ 137 µM) | solubility ([2]; polysorbate 80 (4% aq. solution) in 0.1% phosphate buffer (pH 7)): 581 µg/mL (≈ 1190 µM) | dissolution (in words) ([2]; 0.5% aqueous sodium dodecylsulfate solution): dissolved extremely well | dissolution (in words) ([2]; 4% aqueous polysorbate solution): dissolved extremely well | dissolution (in words) ([2]; aqueous solution containing a water soluble polymer or cyclodextrin): did not dissolve | dissolution (in words) ([2]; aqueous surfactant solution): dissolved well | solubility in water (Solubility in water): less than 0.01 w/v%
SMILES: Cc1nnc2n1-c1sc(CCc3ccc(CC(C)C)cc3)cc1C(c1ccccc1Cl)=NC2C (stereo not drawn) [israpafant, 4-(2-Chlorophenyl)-2-[2-(4-isobutylphenyl)ethyl]-6,9-dimethyl-6H-thieno[3,2-f][1,2,4]triazolo[4,3-a][1,4]diazepine]
dye-leakage ([3]; 10 mg/kg israpafant p.o. + 1 mg/kg mepyramine i.v. (oral concurrent group)): 10.1 µg/two eye balls | dye-leakage ([3]; 10 mg/kg israpafant p.o. once 1 hour before second challenge, control 34.5 µg): 25.3 µg/two eye balls | dye-leakage ([3]; 1.0% israpafant eye drop suspension, instillation 10 µl both eyes at 3, 2, 1 hour before second challenge, control 34.5 µg): 24.7 µg/two eye balls | dye-leakage ([3]; 1.0% israpafant instillation + 1 mg/kg mepyramine i.v. (concurrent instillation group)): 11.0 µg/two eye balls | total score of conjunctivitis signs [4]: significant decrease | suppressive effect on eosinophil infiltration (in words) ([5]; 10 mg/kg israpafant p.o. (oral group), 6 hours after second challenge): no suppressive effect; also recorded: no effect was found; also recorded: no effect was observed | suppressive effect on eosinophil infiltration (in words) ([5]; 10 mg/kg israpafant p.o. + 1 mg/kg mepyramine i.v. (concurrent oral administration group), almost the same as mepyramine alone): suppressive effect | suppressive effect on eosinophil infiltration (in words) ([5]; 1.0% israpafant instillation + 1 mg/kg mepyramine i.v. (concurrent instillation group), almost the same as mepyramine alone): suppressive effect | eosinophil infiltration count ([5]; 1.0% israpafant instillation, 6 hours after second challenge, control 95.3): 71.8 cell/0.04 mm^2 | inhibition (rat PAF conjunctivitis; eye drop suspension 0.03% (dose 3 µg)): 19.1% | inhibition (rat PAF conjunctivitis; eye drop suspension 0.1% (dose 10 µg)): 29.6% | inhibition (rat PAF conjunctivitis; eye drop suspension 0.3% (dose 30 µg)): 41.6% | inhibition (rat PAF conjunctivitis; eye drop suspension 1.0% (dose 100 µg)): 53.2% | amount of dye leakage (rat PAF conjunctivitis; eye drop suspension 0.03% (dose 3 µg), saline 40.03±2.57): 32.29±3.31 µg/site | amount of dye leakage (rat PAF conjunctivitis; eye drop suspension 0.1% (dose 10 µg), p<0.01): 28.17±1.42 µg/site | amount of dye leakage (rat PAF conjunctivitis; eye drop suspension 0.3% (dose 30 µg), p<0.01): 23.37±2.56 µg/site | amount of dye leakage (rat PAF conjunctivitis; eye drop suspension 1.0% (dose 100 µg), p<0.01): 18.74±2.20 µg/site

SMILES: COc1ccc(CN(CCN(C)C)c2ccccn2)cc1 [mepyramine, reference compound]
dye-leakage ([3]; 1 mg/kg mepyramine i.v. one minute before, control 34.5 µg): 17.5 µg/two eye balls | suppressive effect on eosinophil infiltration (in words) ([5]; 1 mg/kg mepyramine i.v., 6 hours after second challenge): suppressive effect
